{
  "source": "patent US12195482B1",
  "about": "(Arcus Biosciences, Inc., priority 2022, dated 2025)",
  "molecular_target": "T1, Axl (Homo sapiens, UniProt P30530)",
  "T1 sequence (P30530 26-894)": "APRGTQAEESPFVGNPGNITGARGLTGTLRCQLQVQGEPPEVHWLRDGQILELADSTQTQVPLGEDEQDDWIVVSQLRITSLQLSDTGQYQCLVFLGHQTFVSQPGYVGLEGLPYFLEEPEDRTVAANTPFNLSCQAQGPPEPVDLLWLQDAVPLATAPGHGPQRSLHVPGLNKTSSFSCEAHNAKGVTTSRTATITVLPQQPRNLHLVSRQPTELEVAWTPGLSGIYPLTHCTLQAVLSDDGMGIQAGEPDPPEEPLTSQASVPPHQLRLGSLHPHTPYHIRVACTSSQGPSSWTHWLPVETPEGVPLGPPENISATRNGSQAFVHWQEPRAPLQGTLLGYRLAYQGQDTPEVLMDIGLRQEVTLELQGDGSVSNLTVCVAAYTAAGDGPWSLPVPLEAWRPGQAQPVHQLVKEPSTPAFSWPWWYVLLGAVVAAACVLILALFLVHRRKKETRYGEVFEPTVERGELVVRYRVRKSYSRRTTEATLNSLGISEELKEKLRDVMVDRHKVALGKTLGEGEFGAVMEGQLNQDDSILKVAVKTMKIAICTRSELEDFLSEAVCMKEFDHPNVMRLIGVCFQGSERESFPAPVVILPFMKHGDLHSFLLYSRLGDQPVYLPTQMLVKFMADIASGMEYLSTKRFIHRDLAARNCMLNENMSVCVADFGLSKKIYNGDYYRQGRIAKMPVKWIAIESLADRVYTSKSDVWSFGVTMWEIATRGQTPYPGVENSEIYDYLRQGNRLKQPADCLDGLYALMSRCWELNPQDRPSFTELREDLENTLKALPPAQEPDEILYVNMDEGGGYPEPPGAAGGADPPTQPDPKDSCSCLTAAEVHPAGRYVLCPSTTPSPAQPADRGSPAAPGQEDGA",
  "test": "Axl NanoBRET intracellular kinase assay (intracellular binding, K-5 tracer displacement)",
  "set-up": "host or cells: HEK-293",
  "conditions": "HEK-293 cells transfected with Axl-NanoLuc, 0.35 μM K-5 NanoBRET tracer; read-out: Cell Binding AXL",
  "how_it_was_run": "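Tracer displacement read as loss of 610/450 nm BRET after 1 h compound then 2 h 0.35 μM K-5 tracer exposure (37 °C) in transfected HEK-293 cells expressing Axl-NanoLuc (8K/well, 0.5% DMSO). Four-parameter regression yielded IC50.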",
  "data": [
    {"smiles": "Fc1cc(-c2c[nH]c3ncc(-c4ccc5c(c4)CC[C@@H](N4C6COCC4C6)CC5)cc23)ccc1-c1ccccn1", "note": "[Example 40, 6-[(7S)-2-{3-[3-Fluoro-4-(pyridin-2-yl)phenyl]-1H-pyrrolo[2,3-b]pyridin-5-yl}-6,7,8,9-tetrahydro-5H-benzo[7]annulen-7-yl]-3-oxa-6-azabicyclo[3.1.1]heptane]", "values": [
      {"measurement": "IC50", "value": "0.1 to 1", "unit": "µM"}
    ]}
  ]
}
